In patent US4175081A, “5-Substituted thiadiazole ureas” (priority 1977, dated 1979):

Key:
[1] = test system: Amaranth pigweed (PW); experiment: Post-emergence herbicide test; type: in vivo, Amaranthus retroflexus; conditions: 336 h, two weeks after treatment; for pest or weed control at 8966.8 g/ha: 8 lb/acre
How it was run: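 Pot-grown pigweed was sprayed post-emergence at the 1–2 true-leaf stage with compound at rates equivalent to 8 lbs per acre (formulations also prepared for 4 lbs/acre) in 38 gallons per acre, using a hood with fixed nozzle. Plants were sub-irrigated in the greenhouse, and injury or control was rated visually two weeks after treatment.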

[2] = test system: Amaranth pigweed (PW); experiment: Pre-emergence herbicide test; type: in vivo, Amaranthus retroflexus; conditions: 336 h, two weeks after treatment; for pest or weed control at 8966.8 g/ha: 8 lb/acre
How it was run: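 Pigweed was surface-seeded in potted soil one day before spraying at 8 lbs compound per acre, or 4 lbs/acre, in 38 gallons per acre. Pots were kept in the greenhouse with sub-irrigation only; injury or control was rated visually two weeks after treatment.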

[3] = test system: Crabgrass (CG); experiment: Pre-emergence herbicide test; type: in vivo, Digitaria sanquinalis; conditions: Digitaria sanguinalis, pre-emergence, 336 h, two weeks after treatment; for pest or weed control at 8966.8 g/ha: 8 lb/acre
How it was run: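 Crabgrass (Digitaria sanquinalis) was surface seeded in 3' plastic pots of potting soil, covered with screened soil, and watered by sub-irrigation in greenhouse trays. Pots were seeded one day before spraying in a hood with a moving belt and fixed nozzle. Plants stayed in the greenhouse on sub-irrigation, and pre-emergence control was rated visually two weeks after treatment.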

[4] = test system: Crabgrass (CG); experiment: Post-emergence herbicide test; type: in vivo, Digitaria sanquinalis; conditions: Digitaria sanguinalis, post-emergence, 336 h, two weeks after treatment; for pest or weed control at 8966.8 g/ha: 8 lb/acre
How it was run: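 Crabgrass (Digitaria sanquinalis) was surface seeded individually in 3' plastic pots of potting soil, covered with screened soil, and watered by sub-irrigation in greenhouse trays. Planting was staggered so seedlings reached the target stage together. Post-emergence sprays were applied in a hood with a removable belt and fixed nozzle, and control was visually rated two weeks after treatment.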

[5] = test system: Corn (CN); experiment: Pre-emergence herbicide test; type: in vivo; conditions: Zea mays, 336 h, two weeks after treatment; for pest or weed control at 8966.8 g/ha: 8 lb/acre
How it was run: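 Four corn seeds per pot, sown at seed-diameter depth one day before spraying, got soil surface treatment at 8 lbs/acre (4 lbs/acre formulations also prepared) in 38 gallons/acre. Pots were greenhouse-held with sub-irrigation only. Injury or control was scored visually two weeks after treatment.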

[6] = test system: Barnyard grass (BG); experiment: Pre-emergence herbicide test; type: in vivo; conditions: Echinochloa crus-galli, 336 h, two weeks after treatment; for pest or weed control at 8966.8 g/ha: 8 lb/acre
How it was run: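 Barnyard grass surface-seeded in potting soil and sprayed pre-emergence one day after seeding, at 8 or 4 lb compound/acre in 38 gal/acre spray volume. Pots kept in greenhouse with sub-irrigation only; injury or control rated visually two weeks after treatment.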

[7] = test system: Turnip (TP); experiment: Post-emergence herbicide test; type: in vivo, Brassica sp.; conditions: Brassica rapa, post-emergence, 336 h, two weeks after treatment; for pest or weed control at 8966.8 g/ha: 8 lb/acre
How it was run: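 A greenhouse post-emergence herbicide test on turnip. Seeds were sown on the surface of potting soil in 3' plastic pots, lightly covered with screened soil and watered from below. Planting was timed so seedlings had 1 or 2 true leaves above the cotyledons at spraying, done in a hood with a fixed nozzle. Control or injury was scored by eye after two weeks.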

[8] = test system: Bean (BN); experiment: Post-emergence herbicide test; type: in vivo, Phaseolus vulgaris var. Black Valentine; conditions: Phaseolus vulgaris, post-emergence, 336 h, two weeks after treatment; for pest or weed control at 8966.8 g/ha: 8 lb/acre
How it was run: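 Snapbean (Phaseolus vulgaris var. Black Valentine) was tested post-emergence. Four seeds were sown in 3' plastic pots of potting soil at a depth equal to the seed diameter, then sub-irrigated in greenhouse trays. Planting dates were staggered so plants were sprayed once primary leaves had expanded, with the growing point at the primary leaf nodes.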

[9] = test system: Bean (BN); experiment: Pre-emergence herbicide test; type: in vivo, Phaseolus vulgaris var. Black Valentine; conditions: Phaseolus vulgaris, 336 h, two weeks after treatment; for pest or weed control at 8966.8 g/ha: 8 lb/acre
How it was run: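 Black Valentine bean was seeded in potting soil one day before spraying. Compound was applied pre-emergence at 8 lbs/acre (also 4 lbs/acre) in 38 gallons per acre. Plants were sub-irrigated and injury or control was rated visually after two weeks.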

[10] = test system: Corn (CN); experiment: Post-emergence herbicide test; type: in vivo; conditions: Zea mays, 336 h, two weeks after treatment; for pest or weed control at 8966.8 g/ha: 8 lb/acre
How it was run: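 Greenhouse seedlings grown in potting soil and sprayed post-emergence at 8 lbs compound/acre (formulations also made for 4 lbs/acre) in 38 gallons/acre spray volume. Watering by sub-irrigation only. Injury or control rated visually two weeks after treatment.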

[11] = test system: Yellow foxtail grass (YF); experiment: Pre-emergence herbicide test; type: in vivo, Setaria glauca; conditions: Setaria, 336 h, two weeks after treatment; for pest or weed control at 8966.8 g/ha: 8 lb/acre
How it was run: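 Seeds surface-sown in potting soil one day before spraying; compounds applied pre-emergence at 8 or 4 lbs/acre in 38 gallons/acre spray. Pots held in greenhouse with sub-irrigation only. Injury or control rated visually two weeks after treatment.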

[12] = test system: Johnson grass (JG); experiment: Pre-emergence herbicide test; type: in vivo, Sorgum helepense; conditions: Sorghum halepense, 336 h, two weeks after treatment; for pest or weed control at 8966.8 g/ha: 8 lb/acre
How it was run: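 Pots seeded one day before spraying; compound applied pre-emergence at 8 lbs/acre (or 4 lbs/acre) in 38 gallons/acre spray volume. Sub-irrigated in greenhouse; injury/control rated visually two weeks after treatment.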

[13] = test system: Turnip (TP); experiment: Pre-emergence herbicide test; type: in vivo, Brassica sp.; conditions: Brassica rapa, pre-emergence, 336 h, two weeks after treatment; for pest or weed control at 8966.8 g/ha: 8 lb/acre
How it was run: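 Turnip (Brassica sp.) seeds were surface sown in 3' plastic pots of potting soil, covered with a thin layer of screened soil, and sub-irrigated in greenhouse trays. Pots were seeded one day ahead of treatment, sprayed pre-emergence under a hood with a fixed nozzle and moving belt, then kept in the greenhouse.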

[14] = test system: Yellow foxtail grass (YF); experiment: Post-emergence herbicide test; type: in vivo, Setaria glauca; conditions: Setaria, 336 h, two weeks after treatment; for pest or weed control at 8966.8 g/ha: 8 lb/acre
How it was run: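 Potted seedlings grown in greenhouse, planting staggered to reach the target stage together, then sprayed post-emergence at 8 lbs actual compound/acre in 38 gallons/acre (4 lbs/acre formulations also prepared). Sub-irrigated afterwards. Injury or control rated visually two weeks after treatment.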

[15] = test system: Cotton (CT); experiment: Post-emergence herbicide test; type: in vivo, Gossypium hirsutum var. DPL smooth leaf; conditions: Gossypium hirsutum, post-emergence, 336 h, two weeks after treatment; for pest or weed control at 8966.8 g/ha: 8 lb/acre
How it was run: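 Cotton (Gossypium hirsutum var. DPL smooth leaf) was grown in 3' plastic pots of potting soil, four seeds per pot, planted at a depth equal to the seed diameter and watered by sub-irrigation. At the stage of expanded cotyledons with the first true leaf 1' long, plants were sprayed post-emergence in a hood with a fixed nozzle over a moving belt. Percent control was rated visually two weeks later.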

[16] = test system: Cotton (CT); experiment: Pre-emergence herbicide test; type: in vivo, Gossypium hirsutum var. DPL smooth leaf; conditions: Gossypium hirsutum, 336 h, two weeks after treatment; for pest or weed control at 8966.8 g/ha: 8 lb/acre
How it was run: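 Crop and weed species seeded one day before treatment, then sprayed pre-emergence at 8 lbs actual compound per acre (also 4 lbs/acre formulations) in 38 gallons per acre. Pots kept in greenhouse with sub-irrigation only; injury or control visually rated two weeks after treatment.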

[17] = test system: Barnyard grass (BG); experiment: Post-emergence herbicide test; type: in vivo; conditions: Echinochloa crus-galli, 336 h, two weeks after treatment; for pest or weed control at 8966.8 g/ha: 8 lb/acre
How it was run: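 Greenhouse pot-grown barnyard grass seedlings sprayed post-emergence at 8 lbs active compound per acre (some at 4 lbs/acre) in 38 gallons per acre, then sub-irrigated. Injury or control rated visually two weeks after treatment.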

[18] = test system: Johnson grass (JG); experiment: Post-emergence herbicide test; type: in vivo, Sorgum helepense; conditions: Sorghum halepense, 336 h, two weeks after treatment; for pest or weed control at 8966.8 g/ha: 8 lb/acre
How it was run: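 Greenhouse pot-grown seedlings sprayed post-emergence at 8 lbs compound per acre (some at 4 lbs/acre) in 38 gallons per acre spray volume. Sub-irrigated thereafter. Injury/control rated visually two weeks after treatment.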

CNC(=O)Nc1nnc(S(C)(=O)=O)s1 [Example 33]
pest or weed control at 2241.7 g/ha ([1]; 2 lb/acre): 50%
pest or weed control at 4483.4 g/ha ([1]; 4 lb/acre): 100%
pest or weed control at 8966.8 g/ha [1]: 100%
pest or weed control at 2241.7 g/ha ([2]; 2 lb/acre): 50%
pest or weed control at 4483.4 g/ha ([2]; 4 lb/acre): 60%
pest or weed control at 8966.8 g/ha [2]: 70%
pest or weed control ([3]; 2 lb/acre): 90%
pest or weed control at 4483.4 g/ha ([3]; 4 lb/acre): 90%
pest or weed control at 8966.8 g/ha [3]: 90%
pest or weed control ([4]; 2 lb/acre): 90%
pest or weed control at 4483.4 g/ha ([4]; 4 lb/acre): 60%
pest or weed control at 8966.8 g/ha [4]: 90%
pest or weed control at 2241.7 g/ha ([5]; 2 lb/acre): 20%
pest or weed control at 4483.4 g/ha ([5]; 4 lb/acre): 20%
pest or weed control at 8966.8 g/ha [5]: 70%
pest or weed control at 2241.7 g/ha ([6]; 2 lb/acre): 70%
pest or weed control at 4483.4 g/ha ([6]; 4 lb/acre): 90%
pest or weed control at 8966.8 g/ha [6]: 80%
pest or weed control at 2241.7 g/ha ([7]; 2 lb/acre): 90%
pest or weed control at 4483.4 g/ha ([7]; 4 lb/acre): 80%
pest or weed control at 8966.8 g/ha [7]: 100%
pest or weed control at 2241.7 g/ha ([8]; 2 lb/acre): 100%
pest or weed control at 4483.4 g/ha ([8]; 4 lb/acre): 100%
pest or weed control at 8966.8 g/ha [8]: 100%
pest or weed control at 2241.7 g/ha ([9]; 2 lb/acre): 100%
pest or weed control at 4483.4 g/ha ([9]; 4 lb/acre): 90%
pest or weed control at 8966.8 g/ha [9]: 90%
pest or weed control ([10]; 2 lb/acre): 20%
pest or weed control at 4483.4 g/ha ([10]; 4 lb/acre): 10%
pest or weed control at 8966.8 g/ha [10]: 100%
pest or weed control at 2241.7 g/ha ([11]; 2 lb/acre): 70%
pest or weed control at 4483.4 g/ha ([11]; 4 lb/acre): 90%
pest or weed control at 8966.8 g/ha [11]: 80%
pest or weed control at 2241.7 g/ha ([12]; 2 lb/acre): 80%
pest or weed control at 4483.4 g/ha ([12]; 4 lb/acre): 60%
pest or weed control at 8966.8 g/ha [12]: 70%
pest or weed control at 2241.7 g/ha ([13]; 2 lb/acre): 90%
pest or weed control at 4483.4 g/ha ([13]; 4 lb/acre): 100%
pest or weed control at 8966.8 g/ha [13]: 100%
pest or weed control ([14]; 2 lb/acre): 70%
pest or weed control at 4483.4 g/ha ([14]; 4 lb/acre): 100%
pest or weed control at 8966.8 g/ha [14]: 90%
pest or weed control at 2241.7 g/ha ([15]; 2 lb/acre): 40%
pest or weed control at 4483.4 g/ha ([15]; 4 lb/acre): 100%
pest or weed control at 8966.8 g/ha [15]: 100%
pest or weed control at 2241.7 g/ha ([16]; 2 lb/acre): 40%
pest or weed control at 4483.4 g/ha ([16]; 4 lb/acre): 50%
pest or weed control at 8966.8 g/ha [16]: 50%
pest or weed control at 2241.7 g/ha ([17]; 2 lb/acre): 70%
pest or weed control at 4483.4 g/ha ([17]; 4 lb/acre): 70%
pest or weed control at 8966.8 g/ha [17]: 100%
pest or weed control ([18]; 2 lb/acre): 80%
pest or weed control at 4483.4 g/ha ([18]; 4 lb/acre): 50%
pest or weed control at 8966.8 g/ha [18]: 40%

CNC(=O)N(C)c1nnc(SC)s1 [Example 38]
pest or weed control at 8966.8 g/ha [1]: 100%
pest or weed control at 8966.8 g/ha [2]: 90%
pest or weed control at 8966.8 g/ha [3]: 100%
pest or weed control at 8966.8 g/ha [4]: 80%
pest or weed control at 8966.8 g/ha [5]: 80%
pest or weed control at 8966.8 g/ha [6]: 100%
pest or weed control at 8966.8 g/ha [7]: 100%
pest or weed control at 8966.8 g/ha [8]: 100%
pest or weed control at 8966.8 g/ha [9]: 100%
pest or weed control at 8966.8 g/ha [10]: 100%
pest or weed control at 8966.8 g/ha [11]: 100%
pest or weed control at 8966.8 g/ha [12]: 80%
pest or weed control at 8966.8 g/ha [13]: 100%
pest or weed control at 8966.8 g/ha [14]: 100%
pest or weed control at 8966.8 g/ha [15]: 100%
pest or weed control at 8966.8 g/ha [16]: 90%
pest or weed control at 8966.8 g/ha [17]: 90%
pest or weed control at 8966.8 g/ha [18]: 80%
